# Assay results taken from patent publication US20230113802A1, “COMPOSITION AND METHOD TO PREPARE LONG-ACTING INJECTABLE SUSPENSION CONTAINING MULTIPLE CANCER DRUGS” (University of Washington, priority 2020, published 2023).
# Like-named read-outs stand apart in the source and are kept apart here.
# Experiments:
# [1] = Pharmacokinetic study of GT in DcNPs compared to CrEL (Example 2), plasma G, T and dFdU; format: in vivo, BALB/c mice; conditions: for MRT / concentration at 3 h / AUC(0-inf) / C0 / half-life / Vd: female, BALB/c, mouse, plasma; for MRT: read-out: MRT (mean residence time); for concentration at 3 h: intravenous; for C0: read-out: C0 (concentration at time 0, back extrapolated); for half-life: read-out: T1/2,app (converted); for Vd: read-out: Vss
# Excerpt: Drugs extracted from biological matrices such as plasma or tissue homogenates were quantified by a Shimadzu HPLC system coupled to a 3200 QTRAP mass spectrometer (Applied Biosystems, Grand Island, N.Y.). The HPLC system consisted of two Shimadzu LC-20A pumps, a DGU-20A5 degasser, and a Shimadzu SIL-20AC HT autosampler. The mass spectrometer was equipped with an electrospray ionization (ESI) TurbolonSpray source. The system was operated with Analyst software, version 1.5.2 (ABSciex, Framingham, Mass.). Chromatographic separation of G and T was achieved using a Synergi column (100×2.0 mm; 4-μm particle size) (Phenomenex, Torrance, Calif.) with an inline C8 guard column (4.0×2.0 mm) also from Phenomenex. The flow rate was set to 0.5 mL/min with a 5 μl sample injection volume. The mobile phase for separation consisted of pump A (20 mM Ammonium Acetate in water) and B (Reagent Alcohol). […] The needle was washed with isopropanol after each injection. Analytes were monitored using multiple-reaction monitoring (MRM) for positive ions.
# Statistical comparisons were performed using 2-sided t-tests with Welch's correction for unequal variances. Significance probability α was set at 0.05. Pharmacokinetic parameters from non-compartmental analysis were calculated using the trapezoidal rule and relevant pharmacokinetic equations shown in Table 3.
# [2] = GT localization in healthy versus 4T1 tumor bearing lung tissue; format: in vivo, BALB/c mice; conditions: for concentration at 1 h / concentration at 24 h / Kp at 1 h / Kp at 24 h: female, BALB/c, mouse, intravenous; for concentration at 24 h / Kp at 24 h: 24 hours after DcNP; for Kp at 1 h / Kp at 24 h: lung/plasma, read-out: Lung/Plasma Ratio
# Experimental: Female BALB/c mice were injected with 2×10^5 4 T1 metastatic breast cancer cells that express luciferase as a marker intravenously by tail vein on day 0. Stable expression of luciferase in these cells allows for bioluminescent monitoring of tumor growth and metastasis. Over a 14-day period, mouse behavior and health conditions were monitored daily and body weight measurements were taken every 2 days. […] The bioluminescence imaging was acquired through a XENOGEN IVIS 200 imaging system (PerkinElmer, Waltham, Mass.). The bioluminescence imaging parameters for live mice were set as follows: field of view, 24; excitation filter, closed; emission filter, open; exposure time, 180 sec; binning factor, 4; f/stop, 2. Bioluminescence intensity from mice were integrated using Live Image software (PerkinElmer, Waltham, Mass.). Mice were then intravenously administered GT in DcNPs at a dose of 50 mg/kg G and 5 mg/kg T or the same dose of drug in control suspension (CrEL) and sacrificed at fixed time points.
# To determine whether DcNPs enhance GT distribution into target tissues, namely cancer nodules, the differential localization of GT in DcNP or CrEL form in healthy versus cancer nodule bearing mice was investigated. Since lungs are a common metastatic site for breast cancer disease progression, a model for metastasis that forms cancer nodules in the lungs was used. Cancer nodules were established in female BALB/c mice via intravenous inoculation of syngeneic breast cancer cells (4T1). […] Once nodules were established and confirmed with IVIS imaging, mice were administered with GT in either DcNP or conventionally solubilized form at equivalent doses (50/5 mg/kg, GT) and euthanized at pre-determined time intervals. Nodule-free and nodule-bearing lungs were harvested, and lung tissue drug concentrations were compared in these two groups.
# [3] = iv, 50 mg/kg, Control (CrEL suspension), 50/5 mg/kg G/T IV, mice
# [4] = iv, 50 mg/kg, GT DcNP, 50/5 mg/kg G/T IV, mice
smiles,measurement,setting,value
"Nc1ccn([C@@H]2O[C@H](CO)[C@@H](O)C2(F)F)c(=O)n1 [Gemcitabine, 4-amino-1-[(2R,4R,5R)-3,3-difluoro-4-hydroxy-5-(hydroxymethyl)oxolan-2-yl]pyrimidin-2-one]",AUC0 to ∞ Ratio (DcNP to control),"[1]; 50/5 mg/kg G/T IV, mice",61.0
same,C0 Ratio (DcNP to control),"[1]; 50/5 mg/kg G/T IV, mice",1.1
same,Dose/AUC Ratio (DcNP to control),"[1]; 50/5 mg/kg G/T IV, mice",0.02
same,MRT Ratio (DcNP to control),"[1]; 50/5 mg/kg G/T IV, mice",45.2
same,"T1/2,app Ratio (DcNP to control)","[1]; 50/5 mg/kg G/T IV, mice",8.6
same,Vss Ratio (DcNP to control),"[1]; 50/5 mg/kg G/T IV, mice",0.7
same,"plasma concentration at 3 hours, DcNP times greater than CrEL","[1]; 50/5 mg/kg G/T IV, mice",470 times
same,AUC0 to ∞ Ratio (DcNP to control),"[1]; 50/5 mg/kg G/T IV, mice, listed as G",61
same,AUC0 to ∞ Ratio (DcNP to control),"[1]; 50/5 mg/kg G/T IV, mice, listed as gemcitabine",50
same,Dose/AUC (apparent clearance),"[1]; Control (CrEL suspension), 50/5 mg/kg G/T IV, mice",65.2 mL/h
same,G to dFdU ratio in plasma at 6 hours,[1]; CrEL control dosage form,0.01
same,difference in mean residence times of G and T after DcNP administration,[1]; GT DcNP,11.3 fold
same,Dose/AUC (apparent clearance),"[1]; GT DcNP, 50/5 mg/kg G/T IV, mice",1.1 mL/h
same,plasma concentration within 15 minutes,"[1]; after GT in CrEL control dosage form IV, mice",12023.5 ng/mL
same,mean plasma concentration at 3 hours,"[1]; after control CrEL dosing, 50/5 mg/kg G/T IV, mice, listed as G",87.3 ng/mL
same,MRT,"[1]; 50 mg/kg, Control (CrEL suspension), 50/5 mg/kg G/T IV, mice",0.25 h
same,concentration at 3 h,"[1]; after GT DcNP dosing, 50/5 mg/kg G/T IV, mice",41100 ng/mL
same,concentration at 3 h,"[1]; after control CrEL dosing, 50/5 mg/kg G/T IV, mice",87.3 ng/mL
same,AUC(0-inf),[1]; [3],15.3 µg·h/mL
same,C0,[1]; [3],165000 ng/mL
same,half-life,[1]; [3],1.6 h
same,Vd,[1]; [3],0.0166 L
same,AUC(0-inf),[1]; [4],937 µg·h/mL
same,C0,[1]; [4],181000 ng/mL
same,MRT,[1]; [4],11.3 h
same,half-life,[1]; [4],13.7 h
same,Vd,[1]; [4],0.0121 L
same,half-life,"[1]; iv, GT DcNP, 50/5 mg/kg G/T IV, mice",13.7 h
same,time over which concentrations in plasma were detected,"[1]; mice administered GT DcNPs, 48-hour study",≥ 48 h
same,plasma concentration by 24 hours,[1]; mice treated with the CrEL control formulation,fell below the detection limit
same,"lung-to-plasma ratio, cancer nodule bearing mice times greater than healthy",[2]; 24 hours after GT DcNP,5 times
same,concentration at 1 h,"[2]; lung, 1 hour after DcNP, 4T1 tumor bearing mice, read-out: Lung",12500 ± 4900 ng/g
same,concentration at 1 h,"[2]; lung, 1 hour after DcNP, Healthy mice, 50/5 mg/kg GT IV, read-out: Lung",7500 ± 1200 ng/g
same,concentration at 1 h,"[2]; lung, 1 hour after control (CrEL), 4T1 tumor bearing mice, 50/5 mg/kg GT IV, read-out: Lung",6000 ± 800 ng/g
same,concentration at 1 h,"[2]; lung, 1 hour after control (CrEL), Healthy mice, 50/5 mg/kg GT IV, geometric mean ± SD, read-out: Lung",900 ± 400 ng/g
same,concentration at 24 h,"[2]; lung, 4T1 tumor bearing mice, read-out: Lung",3500 ± 1000 ng/g
same,concentration at 24 h,"[2]; lung, Healthy mice, read-out: Lung",300 ± 100 ng/g
same,Kp at 1 h,"[2]; 1 hour after DcNP, 4T1 tumor bearing mice",0.2 ± 0.1
same,Kp at 1 h,"[2]; 1 hour after DcNP, Healthy mice",0.1 ± 0.2
same,Kp at 1 h,"[2]; 1 hour after control (CrEL), 4T1 tumor bearing mice",2.2 ± 1.4
same,Kp at 1 h,"[2]; 1 hour after control (CrEL), Healthy mice",0.9 ± 0.3
same,Kp at 24 h,[2]; 4T1 tumor bearing mice,0.1 ± 0.03
same,Kp at 24 h,[2]; Healthy mice,0.02 ± 0.01
same,concentration at 1 h,"[2]; plasma, 1 hour after DcNP, 4T1 tumor bearing mice, read-out: Plasma",72600 ± 60000 ng/mL
same,concentration at 1 h,"[2]; plasma, 1 hour after DcNP, Healthy mice, read-out: Plasma",52200 ± 64000 ng/mL
same,concentration at 1 h,"[2]; plasma, 1 hour after control (CrEL), 4T1 tumor bearing mice, read-out: Plasma",2800 ± 1400 ng/mL
same,concentration at 1 h,"[2]; plasma, 1 hour after control (CrEL), Healthy mice, read-out: Plasma",900 ± 200 ng/mL
same,concentration at 24 h,"[2]; plasma, 4T1 tumor bearing mice, read-out: Plasma",34200 ± 600 ng/mL
same,concentration at 24 h,"[2]; plasma, Healthy mice, read-out: Plasma",12700 ± 1500 ng/mL
